Experimental data reported in patent US10457707B2, “Substituted urea depsipeptide analogs as activators of the CLPP endopeptidase” (priority 2015, dated 2019).
≈ marks a conversion by molar mass, not a printed value. Like-named read-outs stand apart in the source and are kept apart here. *1 amine or outer side, *2 acyl side, *3 side chain or, on linkers, in order; H or OH if unused. Where a SMILES comes first, the peptide text is derived from it. Bridges are numbered along the chain shown (N, C = ends). [ ]: non-standard residue; d: D form. The star is where a group is joined. ξ: configuration not given here. NH(1,3-benzodioxol-5-yl) = c1cc2c(cc1N*)OCO2; Phe(3,5-F2) = N[C@@H](Cc1cc(F)cc(F)c1)C(=O)O; NH(1-Me-indolin-5-yl) = CN1CCc2cc(N*)ccc21; Morpholine(3S-CO) = O=C(O)[C@@H]1COCCN1; NH(4-Cl-2-F-phenyl) = Fc1cc(Cl)ccc1N*; Pro(4R-Me) = C[C@H]1CN[C@H](C(=O)O)C1; Hyp = O=C(O)[C@@H]1C[C@@H](O)CN1; NH(4-Me-phenyl) = Cc1ccc(N*)cc1; ξNMeThr = CNC(C(=O)O)[C@@H](C)O; aThr = C[C@H](O)[C@H](N)C(=O)O; Pip = O=C(O)[C@@H]1CCCCN1; CO = O=C([*:1])[*:2]

What was measured:
[1] = Cytotoxicity assay (CellTiter-Glo cell viability, 72 hours); format: cell-based; details: African green monkey
How it was run: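 Vero cells, 5000/well, grown overnight at 37° C, 5% CO2 in DMEM with 10% FBS, then exposed to serial compound dilutions or DMSO for 72 hours. Viability read by CellTiter-Glo luminescence. IC50 from duplicate wells, reported as range over two independent experiments.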

Sa-ClpP = target: T1, Sa-ClpP (Staphylococcus aureus, UniProt Q2G036); test: ADEP displacement fluorescence polarization assay (FP probe ADEP 2591); format: binding
T1 construct: made in house; host or cells: E. coli BL21(DE3)
T1 sequence (Q2G036 1-195): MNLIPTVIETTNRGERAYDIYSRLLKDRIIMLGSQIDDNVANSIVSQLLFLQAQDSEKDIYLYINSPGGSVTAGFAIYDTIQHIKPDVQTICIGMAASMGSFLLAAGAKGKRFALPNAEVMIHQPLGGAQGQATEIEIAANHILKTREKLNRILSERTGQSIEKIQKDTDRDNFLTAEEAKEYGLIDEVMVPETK
How it was run: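 Master mix of 15 μM S. aureus ClpP with 50 nM TAMRA-labelled ADEP 2591 probe in Tris-HCl pH 8.0, 2% DMSO, was pre-equilibrated 1 h, then incubated with compound 120 min at room temperature. Polarization (ex 530, em 579 nm) was normalized to 200 μM ADEP 2378 and DMSO controls; four-parameter fits, triplicate.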

[2] = system: Streptococcus pyogenes, ATCC 700294; test: Minimal inhibitory concentration assay (microbroth dilution); format: cell-based
How it was run: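 CLSI broth microdilution: two-fold serial compound dilutions in appropriate broth, inoculated and incubated aerobically overnight at 37° C. MIC read visually as lowest concentration preventing bacterial growth.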

[3] = Vero cells, 72 hours, growth inhibition, read-out: Cytotoxicity IC50
[4] = Streptococcus pyogenes, ATCC700294, read-out: Minimal Inhibitory Concentrations S. pyogenes ATCC 700294
[5] = Streptococcus pyogenes, ATCC700294; read-out: Minimal Inhibitory Concentrations S. pyogenes ATCC 700294

Structure (SMILES) | IC50 at 72 h [1, 3] | IC50 (Sa-ClpP) | MIC [2, 4] | IC50 at 72 h [1] | MIC [2, 5]
C[C@@H]1C[C@H]2C(=O)O[C@@H](C)[C@H](NC(=O)[C@H](Cc3cc(F)cc(F)c3)NC(=O)Nc3ccc4c(c3)CCN4C)C(=O)N3CCC[C@H]3C(=O)N3CCCC[C@H]3C(=O)N[C@@H](C)C(=O)N2C1 [Compound 310, (S)-3-(3,5-difluorophenyl)-2-(3-(1-methylindolin-5-yl)ureido)-N-((2R,6S,8aS,14aS,20S,21S,23aS)-2,6,21-trimethyl-5,8,14,19,23-pentaoxooctadecahydro-1H,5H,14H,19H-pyrido[2,1-i]dipyrrolo[2,1-c:2′,1′-l][1]oxa[4,7,10,13]tetraazacyclo-hexadecin-20-yl)propanamide] ({NH(1-Me-indolin-5-yl)-CO}-[Phe(3,5-F2)][aThr]P[Pip]A[Pro(4R-Me)]; ester 2-C) | 0.4 ± 0.01 µM | 6.9 ± 0.3 µM | 0.156 µM (≈ 0.132 µg/mL) |  | 
C[C@@H]1C[C@H]2C(=O)O[C@@H](C)[C@H](NC(=O)[C@H](Cc3cc(F)cc(F)c3)NC(=O)Nc3ccc4c(c3)CCN4C)C(=O)N3CCC[C@H]3C(=O)N(C)C([C@@H](C)O)C(=O)N[C@@H](C)C(=O)N2C1 (stereo partly drawn) [Compound 311, (S)-3-(3,5-difluorophenyl)-N-((2R,6S,9R,11aS,17S,18S,20aS)-9-((R)-1-hydroxyethyl)-2,6,10,18-tetramethyl-5,8,11,16,20-pentaoxohexadecahydro-1H,5H,16H-dipyrrolo[2,1-c:2′,1′-l][1]oxa[4,7,10,13]tetraazacyclohexadecin-17-yl)-2-(3-(1-methylindolin-5-yl)ureido)propanamide] ({NH(1-Me-indolin-5-yl)-CO}-[Phe(3,5-F2)][aThr]P[ξNMeThr]A[Pro(4R-Me)]; ester 2-C) | 14.3 ± 0.3 µM | 7.5 ± 0.3 µM | 0.156 µM (≈ 0.133 µg/mL) |  | 
C[C@@H]1C[C@H]2C(=O)O[C@@H](C)[C@H](NC(=O)[C@H](Cc3cc(F)cc(F)c3)NC(=O)Nc3ccc4c(c3)CCN4C)C(=O)N3CCC[C@H]3C(=O)N3CCOC[C@H]3C(=O)N[C@@H](C)C(=O)N2C1 [Compound 312, (S)-3-(3,5-difluorophenyl)-2-(3-(1-methylindolin-5-yl)ureido)-N-((6aS,12S,13S,15aS,17R,21S,23aS)-13,17,21-trimethyl-6,11,15,20,23-pentaoxooctadecahydro-6H,11H,15H-[1,4]oxazino[3,4-i]dipyrrolo[2,1-c:2′,1′-l][1]oxa[4,7,10,13]tetraazacyclo-hexadecin-12-yl)propanamide] ({NH(1-Me-indolin-5-yl)-CO}-[Phe(3,5-F2)][aThr]P[Morpholine(3S-CO)]A[Pro(4R-Me)]; ester 2-C) | 2.87 µM | 6.3 ± 0.4 µM | 0.156 µM (≈ 0.133 µg/mL) |  | 
C[C@@H]1C[C@H]2C(=O)O[C@@H](C)[C@H](NC(=O)[C@H](Cc3cc(F)cc(F)c3)NC(=O)Nc3ccc(Cl)cc3F)C(=O)N3CCC[C@H]3C(=O)N(C)C([C@@H](C)O)C(=O)N[C@@H](C)C(=O)N2C1 (stereo partly drawn) [Compound 313, (S)-2-(3-(4-chloro-2-fluorophenyl)ureido)-3-(3,5-difluorophenyl)-N-((2R,6S,9R,11aS,17S,18S,20aS)-9-((R)-1-hydroxyethyl)-2,6,10,18-tetramethyl-5,8,11,16,20-pentaoxohexadecahydro-1H,5H,16H-dipyrrolo[2,1-c:2′,1′-l][1]oxa[4,7,10,13]tetraazacyclohexadecin-17-yl)propanamide] ({NH(4-Cl-2-F-phenyl)-CO}-[Phe(3,5-F2)][aThr]P[ξNMeThr]A[Pro(4R-Me)]; ester 2-C) |  | 7.3 ± 0.5 µM |  | 13.5 ± 3.9 µM | < 0.02 µM
C[C@@H]1C[C@H]2C(=O)O[C@@H](C)[C@H](NC(=O)[C@H](Cc3cc(F)cc(F)c3)NC(=O)Nc3ccc(Cl)cc3F)C(=O)N3CCC[C@H]3C(=O)N3CCOC[C@H]3C(=O)N[C@@H](C)C(=O)N2C1 [Compound 314, (S)-2-(3-(4-chloro-2-fluorophenyl)ureido)-3-(3,5-difluorophenyl)-N-((6aS,12S,13S,15aS,17R,21S,23aS)-13,17,21-trimethyl-6,11,15,20,23-pentaoxooctadecahydro-6H,11H,15H-[1,4]oxazino[3,4-i]dipyrrolo[2,1-c:2′,1′-l][1]oxa[4,7,10,13]tetraazacyclo-hexadecin-12-yl)propanamide] ({NH(4-Cl-2-F-phenyl)-CO}-[Phe(3,5-F2)][aThr]P[Morpholine(3S-CO)]A[Pro(4R-Me)]; ester 2-C) |  | 7.2 ± 0.3 µM |  | 2.39 ± 0.8 µM | < 0.02 µM
C[C@@H]1C[C@H]2C(=O)O[C@@H](C)[C@H](NC(=O)[C@H](Cc3cc(F)cc(F)c3)NC(=O)Nc3ccc4c(c3)CCN4C)C(=O)N3C[C@H](O)C[C@H]3C(=O)N3CCOC[C@H]3C(=O)N[C@@H](C)C(=O)N2C1 [Compound 315, (S)-3-(3,5-difluorophenyl)-N-((6aS,8R,12S,13S,15aS,17R,21S,23aS)-8-hydroxy-13,17,21-trimethyl-6,11,15,20,23-pentaoxooctadecahydro-6H,11H,15H-[1,4]oxazino[3,4-i]dipyrrolo[2,1-c:2′,1′-l][1]oxa[4,7,10,13]tetraazacyclohexadecin-12-yl)-2-(3-(1-methylindolin-5-yl)ureido)propanamide] ({NH(1-Me-indolin-5-yl)-CO}-[Phe(3,5-F2)][aThr][Hyp][Morpholine(3S-CO)]A[Pro(4R-Me)]; ester 2-C) | > 100 µM | 13.5 ± 0.6 µM | 0.625 µM (≈ 0.542 µg/mL) |  | 
C[C@@H]1C[C@H]2C(=O)O[C@@H](C)[C@H](NC(=O)[C@H](Cc3cc(F)cc(F)c3)NC(=O)Nc3ccc(Cl)cc3F)C(=O)N3C[C@H](O)C[C@H]3C(=O)N3CCOC[C@H]3C(=O)N[C@@H](C)C(=O)N2C1 [Compound 316, (S)-2-(3-(4-chloro-2-fluorophenyl)ureido)-3-(3,5-difluorophenyl)-N-((6aS,8R,12S,13S,15aS,17R,21S,23aS)-8-hydroxy-13,17,21-trimethyl-6,11,15,20,23-pentaoxooctadecahydro-6H,11H,15H-[1,4]oxazino[3,4-i]dipyrrolo[2,1-c:2′,1′-l][1]oxa[4,7,10,13]tetraazacyclo-hexadecin-12-yl)propanamide] ({NH(4-Cl-2-F-phenyl)-CO}-[Phe(3,5-F2)][aThr][Hyp][Morpholine(3S-CO)]A[Pro(4R-Me)]; ester 2-C) |  | 6.9 ± 0.3 µM |  | > 100 µM | < 0.02 µM
Cc1ccc(NC(=O)N[C@@H](Cc2cc(F)cc(F)c2)C(=O)N[C@H]2COC(=O)[C@@H]3C[C@@H](C)CN3C(=O)[C@H](C)NC(=O)[C@@H]3COCCN3C(=O)[C@@H]3C[C@@H](O)CN3C2=O)cc1 [Compound 317, (S)-3-(3,5-difluorophenyl)-N-((6aS,8R,12S,15aS,17R,21S,23aS)-8-hydroxy-17,21-dimethyl-6,11,15,20,23-pentaoxooctadecahydro-6H,11H,15H-[1,4]oxazino[3,4-i]dipyrrolo[2,1-c:2′,1′-l][1]oxa[4,7,10,13]tetraazacyclohexadecin-12-yl)-2-(3-(p-tolyl)ureido)propanamide] ({NH(4-Me-phenyl)-CO}-[Phe(3,5-F2)]S[Hyp][Morpholine(3S-CO)]A[Pro(4R-Me)]; ester 2-C) | > 100 µM | 7.25 ± 0.5 µM | 0.156 µM (≈ 0.127 µg/mL) |  | 
C[C@@H]1C[C@H]2C(=O)OC[C@H](NC(=O)[C@H](Cc3cc(F)cc(F)c3)NC(=O)Nc3ccc4c(c3)OCO4)C(=O)N3C[C@H](O)C[C@H]3C(=O)N3CCOC[C@H]3C(=O)N[C@@H](C)C(=O)N2C1 [Compound 318, (S)-2-(3-(benzo[d][1,3]dioxol-5-yl)ureido)-3-(3,5-difluorophenyl)-N-((6aS,8R,12S,15aS,17R,21S,23aS)-8-hydroxy-17,21-dimethyl-6,11,15,20,23-pentaoxooctadecahydro-6H,11H,15H-[1,4]oxazino[3,4-i]dipyrrolo[2,1-c:2′,1′-l][1]oxa[4,7,10,13]tetraazacyclo-hexadecin-12-yl)propanamide] ({NH(1,3-benzodioxol-5-yl)-CO}-[Phe(3,5-F2)]S[Hyp][Morpholine(3S-CO)]A[Pro(4R-Me)]; ester 2-C) |  | 6.54 ± 0.5 µM |  | > 100 µM | 0.625 µM (≈ 0.526 µg/mL)
C[C@@H]1C[C@H]2C(=O)O[C@@H](C)[C@H](NC(=O)[C@H](Cc3cc(F)cc(F)c3)NC(=O)Nc3ccc4c(c3)OCO4)C(=O)N3C[C@H](O)C[C@H]3C(=O)N3CCOC[C@H]3C(=O)N[C@@H](C)C(=O)N2C1 [Compound 319, (S)-2-(3-(benzo[d][1,3]dioxol-5-yl)ureido)-3-(3,5-difluorophenyl)-N-((6aS,8R,12S,13S,15aS,17R,21S,23aS)-8-hydroxy-13,17,21-trimethyl-6,11,15,20,23-pentaoxooctadecahydro-6H,11H,15H-[1,4]oxazino[3,4-i]dipyrrolo[2,1-c:2′,1′-l][1]oxa[4,7,10,13]tetraazacyclo-hexadecin-12-yl)propanamide] ({NH(1,3-benzodioxol-5-yl)-CO}-[Phe(3,5-F2)][aThr][Hyp][Morpholine(3S-CO)]A[Pro(4R-Me)]; ester 2-C) |  | 7.75 ± 0.6 µM |  | > 100 µM | 0.313 µM (≈ 0.268 µg/mL)
